Results as given in patent publication US9980943B2, “Methods of treating muscular dystrophy” (BOARD OF REGENTS OF THE NEVADA SYSTEM OF HIGHER EDUCATION, …, priority 2013, dated 2018).

Tests used:
Type in all cases: cell-based, mouse
[1] = test system: α7 integrin (LacZ reporter in α7βgal+/− myoblasts); experiment: Myoblast α7+/LacZ integrin FDG assay (Burkin assay in myoblasts, 96-well); conditions: α7+/LacZ myoblasts, 96-well
[2] = test system: β-galactosidase in CMV-LacZ C2C12 myotubes; experiment: CMV-LacZ secondary screen in C2C12 myotubes (β-Gal stabilizing assay); conditions: C2C12 CMV-LacZ myotubes, fold relative to DMSO
Outline: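 Stable CMV-LacZ C2C12 clone; six-point curve 0.5–40 μM; duplicates.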

[3] = test system: β-galactosidase in CMV-LacZ C2C12 myoblasts; experiment: CMV-LacZ secondary screen in C2C12 myoblasts (β-Gal stabilizing assay); conditions: CMV-LacZ C2C12 myoblasts
Outline: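 β-Gal level was the read-out, measured in a clonal C2C12 line expressing LacZ from a CMV promoter. Dose-response curves used six concentrations, 0.5 μM up to 40 μM, with duplicate points.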

[4] = test system: α7 integrin (LacZ reporter in α7+/LacZ myotubes); experiment: Myotube α7 integrin FDG assay (Burkin assay in myotubes, 96-well); conditions: myotubes

| SMILES | Burkin Assay in Myoblasts, signal relative to DMSO ([1]; 0.5 uM) | Burkin Assay in Myoblasts, signal relative to DMSO ([1]; 1 uM) | Burkin Assay in Myoblasts, signal relative to DMSO ([1]; 5 uM) | Burkin Assay in Myoblasts, signal relative to DMSO ([1]; 10 uM) | Burkin Assay in Myoblasts, signal relative to DMSO ([1]; 20 uM) | Burkin Assay in Myoblasts, signal relative to DMSO ([1]; 40 uM) | CMV-LACZ in Myotubes, signal relative to DMSO ([2]; 0.5 uM) | CMV-LACZ in Myotubes, signal relative to DMSO ([2]; 1 uM) | CMV-LACZ in Myotubes, signal relative to DMSO ([2]; 5 uM) | CMV-LACZ in Myotubes, signal relative to DMSO ([2]; 10 uM) | CMV-LACZ in Myotubes, signal relative to DMSO ([2]; 20 uM) | CMV-LACZ in Myotubes, signal relative to DMSO ([2]; 40 uM) | CMV-LACZ in Myoblasts (β-galactosidase activity relative to DMSO) ([3]; 0.5 uM) | CMV-LACZ in Myoblasts (β-galactosidase activity relative to DMSO) ([3]; 1 uM) | CMV-LACZ in Myoblasts (β-galactosidase activity relative to DMSO) ([3]; 5 uM) | CMV-LACZ in Myoblasts (β-galactosidase activity relative to DMSO) ([3]; 10 uM) | CMV-LACZ in Myoblasts (β-galactosidase activity relative to DMSO) ([3]; 20 uM) | CMV-LACZ in Myoblasts (β-galactosidase activity relative to DMSO) ([3]; 40 uM) | Burkin Assay in Myotubes, α7 integrin LacZ reporter signal relative to DMSO ([4]; 0.5 uM) | Burkin Assay in Myotubes, α7 integrin LacZ reporter signal relative to DMSO ([4]; 1 uM) | further results |
| --- | --- | --- | --- | --- | --- | --- | --- | --- | --- | --- | --- | --- | --- | --- | --- | --- | --- | --- | --- | --- | --- |
| O=C(c1ccccc1)N1CCN(S(=O)(=O)c2cccs2)CC1 [MLS001035690-01] | 1.051 | 1.151 | 1.186 | 0.9872 | 1.055 | 1.091 | 1.0474 | 0.8644 | 1.1552 | 1.1317 | 1.1976 | 1.0976 | 0.9819 | 1.0406 | 0.9910 | 1.2020 | 1.3585 | 0.9178 | 1.111 | 1.072 | Burkin Assay in Myotubes, α7 integrin LacZ reporter signal relative to DMSO ([4]; 5 uM): 1.073; Burkin Assay in Myotubes, α7 integrin LacZ reporter signal relative to DMSO ([4]; 10 uM): 0.9358; Burkin Assay in Myotubes, α7 integrin LacZ reporter signal relative to DMSO ([4]; 20 uM): 0.972; Burkin Assay in Myotubes, α7 integrin LacZ reporter signal relative to DMSO ([4]; 40 uM): 0.9238 |
| Cc1noc(C)c1COc1ccc(C(=O)NCCc2ccccn2)cc1 [MLS001061374-01] | 0.8477 | 0.8448 | 0.9826 | 1.169 | 0.873 | 0.6774 | 1.2568 | 1.1000 | 1.1237 | 0.8498 | 1.1689 | 1.0489 | 0.7117 | 1.1702 | 1.0601 | 0.9793 | 0.9744 | 1.1037 | 1.058 | 1.092 | Burkin Assay in Myotubes, α7 integrin LacZ reporter signal relative to DMSO ([4]; 5 uM): 1.004; Burkin Assay in Myotubes, α7 integrin LacZ reporter signal relative to DMSO ([4]; 10 uM): 1.181; Burkin Assay in Myotubes, α7 integrin LacZ reporter signal relative to DMSO ([4]; 20 uM): 0.732; Burkin Assay in Myotubes, α7 integrin LacZ reporter signal relative to DMSO ([4]; 40 uM): 0.8155 |
| CC1(C)Cc2c(c(N3CCOCC3)nc3sc(C(=O)Nc4ccccc4)c(N)c23)CO1 [MLS001075922-01] | 1.2085 | 1.292 | 0.6039 | 0.2869 | 0.5678 | 0.6464 | 1.0222 | 1.0533 | 1.2947 | 1.2173 | 1.0282 | 0.8388 | 0.9434 | 1.3028 | 1.6332 | 1.2361 | 0.9881 | 1.3037 | 1.292 | 1.143 | Burkin Assay in Myotubes, α7 integrin LacZ reporter signal relative to DMSO ([4]; 5 uM): 0.6556; Burkin Assay in Myotubes, α7 integrin LacZ reporter signal relative to DMSO ([4]; 10 uM): 0.629; Burkin Assay in Myotubes, α7 integrin LacZ reporter signal relative to DMSO ([4]; 20 uM): 1.067; Burkin Assay in Myotubes, α7 integrin LacZ reporter signal relative to DMSO ([4]; 40 uM): 0.8243 |
| CN(CC(=O)Nc1cccc(F)c1)C(=O)c1ccc(-c2ccc(Cl)cc2)o1 [MLS001078811-01] | 0.9376 | 0.9926 | 0.9583 | 0.891 | 1.681 | 0.7411 | 0.8486 | 0.9086 | 1.1571 | 0.9981 | 1.0510 | 0.6710 | 1.2397 | 1.2290 | 0.7927 | 0.6873 | 0.8393 | 0.9014 | 0.9163 | 0.9064 | Burkin Assay in Myotubes, α7 integrin LacZ reporter signal relative to DMSO ([4]; 5 uM): 0.9816; Burkin Assay in Myotubes, α7 integrin LacZ reporter signal relative to DMSO ([4]; 10 uM): 0.8773; Burkin Assay in Myotubes, α7 integrin LacZ reporter signal relative to DMSO ([4]; 20 uM): 0.6307; Burkin Assay in Myotubes, α7 integrin LacZ reporter signal relative to DMSO ([4]; 40 uM): 0.4598 |
| COc1ccccc1C(=O)Nc1ccnn1C1CCN(C(=O)c2ccoc2)CC1 [MLS001083082-01] | 0.9036 | 0.9516 | 1.058 | 1.023 | 1.014 | 0.9468 | 0.9615 | 1.0326 | 0.9984 | 0.9776 | 1.0282 | 1.1165 | 0.8591 | 0.9234 | 1.0409 | 1.1713 | 0.9615 | 0.8144 | 1.035 | 0.9411 | Burkin Assay in Myotubes, α7 integrin LacZ reporter signal relative to DMSO ([4]; 5 uM): 1.07; Burkin Assay in Myotubes, α7 integrin LacZ reporter signal relative to DMSO ([4]; 10 uM): 1.05; Burkin Assay in Myotubes, α7 integrin LacZ reporter signal relative to DMSO ([4]; 20 uM): 0.8987; Burkin Assay in Myotubes, α7 integrin LacZ reporter signal relative to DMSO ([4]; 40 uM): 0.937 |
